Assay results published in US20220315554A1, “COMPOUNDS COMPRISING A […] LIGAND AND USE THEREOF” (priority 2019, published 2022).
Numbered stars: 1 amine (or outer) side, 2 acyl side, 3 side chain; on linkers, the order of the positions; unused ones are H or OH. Bridge positions count the residues as written; N and C are the ends. Square brackets hold non-standard residues; d marks the D form. Peptide text beside a SMILES is read from it. * marks the point of attachment. TBMB(SCH2CH2NH-DOTA) = O=C(O)CN1CCN(CC(=O)O)CCN(CC(=O)NCCSCc2cc(C[*:1])cc(C[*:2])c2)CCN(CC(=O)O)CC1; X3 = NC(=O)[C@H](CCCCNC(=O)CN1CCN(CC(=O)O)CCN(CC(=O)O)CCN(CC(=O)O)CC1)NC(=O)CCC(=O)NCCCOCCOCCOCCCN*; X2 = O=C(O)CN1CCN(CC(=O)O)CCN(CC(=O)NCCCOCCOCCOCCCN*)CCN(CC(=O)O)CC1; mXylylene = c1cc(C[*:1])cc(C[*:2])c1; NMeF = CN[C@@H](Cc1ccccc1)C(=O)O; Suc = O=C(CCC(=O)[*:2])[*:1]; 4Amb = NCc1ccc(C(=O)O)cc1; Nle = CCCC[C@H](N)C(=O)O; Hexanoyl = CCCCCC(=O)*

Assays:
[1] = Plasma stability assay, mouse plasma; assay type: in vitro ADME; details: 37° C., read-out: % intact compound remaining after incubation, Mouse plasma; for remaining at 4 h, 9.8 µM: 4 h incubation
[2] = molecular target: T1, FAP-expressing human WI-38 fibroblasts (Homo sapiens, UniProt Q12884); test: Competitive FACS binding assay
T1 construct: FAP-expressing human WI-38 fibroblasts (ECACC) were cultured in EMEM; host or cells: WI-38 human fibroblasts
T1 sequence (Q12884 1-760): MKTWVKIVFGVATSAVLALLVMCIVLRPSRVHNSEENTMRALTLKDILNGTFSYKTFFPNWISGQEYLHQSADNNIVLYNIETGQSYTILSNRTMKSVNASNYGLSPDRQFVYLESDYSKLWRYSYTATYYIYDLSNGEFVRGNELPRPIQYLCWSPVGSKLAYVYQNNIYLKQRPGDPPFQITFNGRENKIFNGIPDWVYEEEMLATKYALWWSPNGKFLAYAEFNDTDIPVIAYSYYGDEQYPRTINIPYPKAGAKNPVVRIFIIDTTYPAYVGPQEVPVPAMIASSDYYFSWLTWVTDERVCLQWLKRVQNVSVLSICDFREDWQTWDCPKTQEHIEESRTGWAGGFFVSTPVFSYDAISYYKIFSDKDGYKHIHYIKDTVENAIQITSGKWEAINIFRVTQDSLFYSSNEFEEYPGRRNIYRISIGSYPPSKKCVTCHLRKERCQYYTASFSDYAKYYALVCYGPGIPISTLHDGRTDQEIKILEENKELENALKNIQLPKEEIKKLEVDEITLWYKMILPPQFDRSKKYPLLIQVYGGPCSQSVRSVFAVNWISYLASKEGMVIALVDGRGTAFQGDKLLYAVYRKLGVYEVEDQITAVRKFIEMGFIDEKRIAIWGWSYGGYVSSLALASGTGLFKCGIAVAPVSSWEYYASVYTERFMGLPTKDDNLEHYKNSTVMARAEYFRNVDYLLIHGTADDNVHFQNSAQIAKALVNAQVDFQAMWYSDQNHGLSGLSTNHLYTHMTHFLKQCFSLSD
Protocol: Cells were analyzed in an Attune NxT flow cytometer. […]

[3] = molecular target: T2, Human recombinant FAP (Homo sapiens, UniProt Q12884); test: Surface plasmon resonance (Biacore) assay; assay type: binding
T2 sequence (Q12884 1-760): T1 sequence (Q12884 1-760)

[4] = molecular target: T3, recombinant human PREP (Homo sapiens, UniProt P48147); test: PREP protease activity assay; assay type: biochemical
T3 construct: purchased R&D systems 4308-SE
T3 sequence (P48147 1-710): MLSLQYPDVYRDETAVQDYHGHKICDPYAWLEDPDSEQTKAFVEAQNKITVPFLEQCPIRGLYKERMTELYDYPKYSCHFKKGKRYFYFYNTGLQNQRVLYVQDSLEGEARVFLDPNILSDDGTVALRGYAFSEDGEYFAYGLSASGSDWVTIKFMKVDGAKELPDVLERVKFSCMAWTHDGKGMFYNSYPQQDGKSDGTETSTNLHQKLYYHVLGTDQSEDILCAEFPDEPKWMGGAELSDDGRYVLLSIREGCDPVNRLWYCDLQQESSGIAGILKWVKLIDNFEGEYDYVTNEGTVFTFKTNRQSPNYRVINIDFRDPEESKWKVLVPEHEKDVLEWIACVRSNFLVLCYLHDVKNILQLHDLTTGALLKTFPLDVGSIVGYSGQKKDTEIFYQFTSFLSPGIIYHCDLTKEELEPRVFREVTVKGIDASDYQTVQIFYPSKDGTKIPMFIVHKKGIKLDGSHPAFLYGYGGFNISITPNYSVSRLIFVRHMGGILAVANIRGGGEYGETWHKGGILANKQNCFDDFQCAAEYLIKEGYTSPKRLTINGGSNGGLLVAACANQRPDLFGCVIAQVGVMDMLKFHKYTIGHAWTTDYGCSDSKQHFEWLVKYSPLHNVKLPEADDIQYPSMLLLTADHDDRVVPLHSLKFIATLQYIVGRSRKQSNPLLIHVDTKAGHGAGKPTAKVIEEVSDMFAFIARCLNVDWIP

[5] = molecular target: T4, Recombinant human DPP4 (Homo sapiens, UniProt P27487); test: DPP4 protease activity assay; assay type: biochemical
T4 construct: purchased R&D systems 9168-SE

[6] = molecular target: T2, Human recombinant FAP; test: FRET-based FAP protease activity assay; assay type: biochemical; design: purchased R&D systems 3715-SE
[7] = pIC50 Category (FACS), competition with 3 nM Cy5-labeled compound, WI-38 fibroblasts, 4° C., 1 hour
[8] = pIC50 Category (Activity), recombinant human FAP, FRET substrate, 37° C.

T4 sequence (P27487 whole entry): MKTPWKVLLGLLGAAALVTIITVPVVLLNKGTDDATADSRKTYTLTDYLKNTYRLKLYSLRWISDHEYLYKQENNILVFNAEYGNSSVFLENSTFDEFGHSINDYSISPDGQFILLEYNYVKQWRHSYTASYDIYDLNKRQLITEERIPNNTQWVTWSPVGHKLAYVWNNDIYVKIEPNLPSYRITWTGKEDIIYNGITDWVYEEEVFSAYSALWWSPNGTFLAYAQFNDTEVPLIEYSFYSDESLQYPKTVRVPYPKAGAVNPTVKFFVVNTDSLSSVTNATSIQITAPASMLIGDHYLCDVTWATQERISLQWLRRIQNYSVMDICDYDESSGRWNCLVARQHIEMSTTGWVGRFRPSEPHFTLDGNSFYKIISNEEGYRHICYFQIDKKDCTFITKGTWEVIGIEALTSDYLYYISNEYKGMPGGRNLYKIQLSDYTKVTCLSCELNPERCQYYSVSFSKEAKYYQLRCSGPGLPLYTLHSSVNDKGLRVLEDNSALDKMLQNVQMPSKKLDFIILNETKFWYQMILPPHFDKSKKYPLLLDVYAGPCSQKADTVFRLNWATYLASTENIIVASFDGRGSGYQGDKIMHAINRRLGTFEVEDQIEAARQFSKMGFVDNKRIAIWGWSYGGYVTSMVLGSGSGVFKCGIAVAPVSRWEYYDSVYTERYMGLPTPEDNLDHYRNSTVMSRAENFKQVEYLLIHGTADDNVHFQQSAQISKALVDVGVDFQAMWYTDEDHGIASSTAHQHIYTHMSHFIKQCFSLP

remaining at 4 h, 9.8 µM [1]	IC50 [2, 7]	Kd [3]	IC50 [4]	IC50 [5]	IC50 [6, 8]	IC50 ([2]; pIC50 (highest activity category), FACS binding)	IC50 ([6]; pIC50 (highest activity category), FAP activity assay)	SMILES	remaining at 24 h, 9.8 µM ([1]; 24 h incubation)
94%	< 10 nM	< 10 nM	> 1000 nM	> 1000 nM	< 10 nM	–	–	CCCCCC(=O)N[C@H]1CSCc2cccc(c2)CSC[C@@H](C(=O)N[C@@H](CC(=O)O)C(=O)N[C@@H](Cc2c[nH]cn2)C(=O)N(C)[C@@H](Cc2ccccc2)C(=O)N[C@@H](CCCNC(=N)N)C(=O)NCCCOCCOCCOCCCNC(=O)CCC(=O)N[C@@H](CCCCNC(=O)CN2CCN(CC(=O)O)CCN(CC(=O)O)CCN(CC(=O)O)CC2)C(N)=O)NC(=O)[C@H](Cc2ccccc2)NC(=O)[C@H](CCC(=O)O)NC(=O)[C@H]([C@@H](C)O)NC(=O)[C@@H]2CCCN2C(=O)[C@@H]2CCCN2C1=O [3BP-3275, Hex-[Cys(3MeBn)-Pro-Pro-Thr-Glu-Phe-Cys]-Asp-His-Nmf-Arg-Ttds-Lys(DOTA)-NH2] (Hexanoyl-CPPTEFCDH[NMeF]R-X3; linker 1-7 via mXylylene)	–
94%	< 10 nM	< 10 nM	> 1000 nM	> 1000 nM	< 10 nM	–	–	CCCC[C@H](NC(=O)CCC(=O)NCCCOCCOCCOCCCNC(=O)CN1CCN(CC(=O)O)CCN(CC(=O)O)CCN(CC(=O)O)CC1)C(=O)N[C@H]1CSCc2cccc(c2)CSC[C@@H](C(=O)N[C@@H](CC(=O)O)C(=O)NCc2ccc(C(=O)N[C@@H](CCCNC(=N)N)C(N)=O)cc2)NC(=O)[C@H](Cc2ccccc2)NC(=O)[C@H](CCC(=O)O)NC(=O)[C@H]([C@@H](C)O)NC(=O)[C@@H]2CCCN2C(=O)[C@@H]2CCCN2C1=O [3BP-3321, DOTA-Ttds-Nle-[Cys(3MeBn)-Pro-Pro-Thr-Glu-Phe-Cys]-Asp-Pamb-Arg-NH2] ({X2-Suc}-[Nle]CPPTEFCD[4Amb]R-NH2; linker 2-8 via mXylylene)	–
100%	< 10 nM	< 10 nM	> 1000 nM	> 1000 nM	< 10 nM	< 10 nM	< 10 nM	CSCC[C@H](NC(=O)CCC(=O)NCCCOCCOCCOCCOCCCNC(=O)CN1CCN(CC(=O)O)CCN(CC(=O)O)CCN(CC(=O)O)CC1)C(=O)N[C@H]1CSCc2cccc(c2)CSC[C@@H](C(=O)N[C@@H](CC(=O)O)C(=O)N[C@@H](Cc2c[nH]cn2)C(=O)N[C@@H](Cc2ccccc2)C(=O)N[C@@H](CCCNC(=N)N)C(=O)N[C@@H](CC(=O)O)C(N)=O)NC(=O)[C@H](Cc2ccccc2)NC(=O)[C@H](CCC(=O)O)NC(=O)[C@H]2NC(=O)[C@@H]3C(CCN3C(=O)[C@@H]3CCCN3C1=O)[C@H]2O [3BP-3168, DOTA-Ttds-Nle-[Cys(3MeBn)-Pro-Pro-Thr-Glu-Phe-Cys]-Asp-His-Phe-Arg-Asp-NH2]	–

SMILES	remaining at 4 h, 9.8 µM [1]	IC50 [2, 7]	Kd [3]	IC50 [4]	IC50 [5]	IC50 [6, 8]	IC50 ([2]; pIC50 (highest activity category), FACS binding)	IC50 ([6]; pIC50 (highest activity category), FAP activity assay)	remaining at 24 h, 9.8 µM ([1]; 24 h incubation)
CCCCCC(=O)N[C@H]1CSCc2cc(CSCCNC(=O)CN3CCN(CC(=O)O)CCN(CC(=O)O)CCN(CC(=O)O)CC3)cc(c2)CSC[C@@H](C(=O)N[C@@H](CC(=O)O)C(N)=O)NC(=O)[C@H](Cc2ccccc2)NC(=O)[C@H](CCC(N)=O)NC(=O)[C@H]([C@@H](C)O)NC(=O)[C@@H]2CCCN2C(=O)[C@@H]2CCCN2C1=O [3BP-3426, Hex-[Cys(tMeBn(DOTA-AET))-Pro-Pro-Thr-Gln-Phe-Cys]-Asp-NH2] (Hexanoyl-CPPTQFCD-NH2; linker 1-7 via TBMB(SCH2CH2NH-DOTA))	–	< 10 nM	< 10 nM	> 1000 nM	> 1000 nM	< 10 nM	–	–	73%
CCCC[C@H](NC(=O)CCC(=O)NCCCOCCOCCOCCCNC(=O)CN1CCN(CC(=O)O)CCN(CC(=O)O)CCN(CC(=O)O)CC1)C(=O)N[C@H]1CSCc2cccc(c2)CSC[C@@H](C(N)=O)NC(=O)[C@H](Cc2ccccc2)NC(=O)[C@H](CCC(=O)O)NC(=O)[C@H]([C@@H](C)O)NC(=O)[C@@H]2CCCN2C(=O)[C@@H]2CCCN2C1=O [3BP-3319, DOTA-Ttds-Nle-[Cys(3MeBn)-Pro-Pro-Thr-Glu-Phe-Cys]-NH2] ({X2-Suc}-[Nle]CPPTEFC-NH2; linker 2-8 via mXylylene)	100%	10 to 79.4 nM	10 to 79.4 nM	631 nM	> 1000 nM	10 to 79.4 nM	–	–	–
